According to EPA's ToxValDB 9.5 (doi:10.2903/j.efsa.2011.2087):
In brackets after ≈: the same amount, converted by molar mass.

Columns and labels:
Apis mellifera = settings: acute; duration: 96 hours; dermal; mortality
Bibionidae = settings: chronic/long-term; duration: 28 days
Colinus virginianus = settings: reproduction developmental
Cyprinodon variegatus = settings: acute; duration: 96 hours; mortality
Daphnia magna = settings: chronic/long-term; duration: 21 days; reproduction
Oncorhynchus mykiss = settings: acute; duration: 96 hours; mortality
Pimephales promelas = settings: chronic/long-term; duration: 272 days; growth
Tagia sp. = settings: acute; duration: 14 days; mortality
Typhlodromus pyri = test: LR50; higher = less toxic; settings: acute; duration: 7 days; mortality

## C#CCOS(=O)OC1CCCCC1Oc1ccc(C(C)(C)C)cc1 (stereo not drawn) [Propargite]
Anas platyrhynchos; acute, oral, unspecified, mortality
  LD50: > 4640 mg/kg
Anas platyrhynchos; reproductive
  NOEC: 13.5 mg/kg-day
Apis mellifera
  LD50: 47.9 µg/piece
Bibionidae
  NOEC: 0.32 mg/L
Colinus virginianus
  NOEC: 142 mg/kg-day
Cyprinodon variegatus
  LC50: 0.055 µg/mL (≈ 0.157 µM)
Daphnia magna
  NOEC: 0.009 mg/L
Oncorhynchus mykiss
  LC50: 0.043 µg/mL (≈ 0.123 µM)
Pimephales promelas
  NOEC: 0.0057 mg/L
Rattus norvegicus; acute, oral, mortality
  LD50: 2640 mg/kg-day
Rattus norvegicus; chronic
  NOEL: 6.3 mg/kg-day
Tagia sp.
  LC50: 378 mg/kg
Typhlodromus pyri
  LR50: 4.5 g/ha
